Here are results for three compounds from paper PMC2861344 (Neuropharmacology, 2010).

The target in test [1] is T1, NR1aNR2A NMDA receptor (NR2A subunit) (Rattus norvegicus, UniProt P35439+Q00959). Nature of the test: whole-cell patch clamp, inhibition of EC30 NMDA current. The format is cell-based. Particulars: read-out: % inhibition at 100 μM. (In general: Patch clamp records ionic current or voltage across a cell membrane.)
Test [2] addresses T2, NR1aNR2B NMDA receptor (NR2B subunit) (Rattus norvegicus, UniProt P35439+Q00960). The description is as above. Format: cell-based. The conditions noted are these: read-out: % inhibition at 100 μM.
In test [3] the test system is NMDA receptor (native, hippocampal neurons). Format: cell-based, Mus musculus.
The target in test [4] is T2, NR1aNR2B NMDA receptor (NR2B subunit). Description: whole-cell patch clamp, agonist concentration-response. Format: cell-based.
Test [5] concerns the target T1, NR1aNR2A NMDA receptor (NR2A subunit). The description is as above. The format is cell-based.

T2 sequence (Q00960 27-1482, other chains not shown): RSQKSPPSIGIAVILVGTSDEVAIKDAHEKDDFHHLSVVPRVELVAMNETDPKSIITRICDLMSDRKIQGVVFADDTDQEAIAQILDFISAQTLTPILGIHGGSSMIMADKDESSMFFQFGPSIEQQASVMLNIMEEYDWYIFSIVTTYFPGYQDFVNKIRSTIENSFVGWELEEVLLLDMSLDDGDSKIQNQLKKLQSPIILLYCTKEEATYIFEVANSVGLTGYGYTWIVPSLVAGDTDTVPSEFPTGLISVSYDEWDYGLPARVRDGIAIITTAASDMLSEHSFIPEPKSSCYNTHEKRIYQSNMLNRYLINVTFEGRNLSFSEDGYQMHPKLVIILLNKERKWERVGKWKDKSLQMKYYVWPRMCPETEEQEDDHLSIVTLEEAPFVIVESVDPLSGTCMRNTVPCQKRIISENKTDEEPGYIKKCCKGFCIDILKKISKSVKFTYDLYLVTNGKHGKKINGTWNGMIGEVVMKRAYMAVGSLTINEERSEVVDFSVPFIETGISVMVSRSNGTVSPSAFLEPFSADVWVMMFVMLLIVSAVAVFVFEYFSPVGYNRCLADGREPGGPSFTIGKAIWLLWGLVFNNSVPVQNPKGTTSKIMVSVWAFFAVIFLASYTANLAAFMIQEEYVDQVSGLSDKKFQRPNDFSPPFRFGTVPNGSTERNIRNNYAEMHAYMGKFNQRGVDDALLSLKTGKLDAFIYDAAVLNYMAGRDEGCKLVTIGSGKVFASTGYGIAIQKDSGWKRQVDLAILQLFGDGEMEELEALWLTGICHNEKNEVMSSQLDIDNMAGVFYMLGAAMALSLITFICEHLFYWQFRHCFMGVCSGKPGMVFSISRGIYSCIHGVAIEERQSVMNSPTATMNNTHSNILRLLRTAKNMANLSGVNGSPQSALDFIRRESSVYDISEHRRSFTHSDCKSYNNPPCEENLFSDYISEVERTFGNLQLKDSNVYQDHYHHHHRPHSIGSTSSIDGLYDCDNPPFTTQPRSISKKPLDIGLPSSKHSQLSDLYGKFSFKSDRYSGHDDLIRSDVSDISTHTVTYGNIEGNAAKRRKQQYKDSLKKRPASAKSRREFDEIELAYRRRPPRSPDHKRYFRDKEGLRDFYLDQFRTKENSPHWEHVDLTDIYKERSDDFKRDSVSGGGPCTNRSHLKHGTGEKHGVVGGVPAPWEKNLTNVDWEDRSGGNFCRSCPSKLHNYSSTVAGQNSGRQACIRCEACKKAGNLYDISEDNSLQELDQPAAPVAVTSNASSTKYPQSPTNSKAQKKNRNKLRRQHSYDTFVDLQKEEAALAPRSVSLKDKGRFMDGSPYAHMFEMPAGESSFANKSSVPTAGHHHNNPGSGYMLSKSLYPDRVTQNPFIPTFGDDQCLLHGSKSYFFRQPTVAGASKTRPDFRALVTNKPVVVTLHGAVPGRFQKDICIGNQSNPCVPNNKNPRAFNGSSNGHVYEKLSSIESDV
T1 sequence (Q00959 23-1464, other chains not shown): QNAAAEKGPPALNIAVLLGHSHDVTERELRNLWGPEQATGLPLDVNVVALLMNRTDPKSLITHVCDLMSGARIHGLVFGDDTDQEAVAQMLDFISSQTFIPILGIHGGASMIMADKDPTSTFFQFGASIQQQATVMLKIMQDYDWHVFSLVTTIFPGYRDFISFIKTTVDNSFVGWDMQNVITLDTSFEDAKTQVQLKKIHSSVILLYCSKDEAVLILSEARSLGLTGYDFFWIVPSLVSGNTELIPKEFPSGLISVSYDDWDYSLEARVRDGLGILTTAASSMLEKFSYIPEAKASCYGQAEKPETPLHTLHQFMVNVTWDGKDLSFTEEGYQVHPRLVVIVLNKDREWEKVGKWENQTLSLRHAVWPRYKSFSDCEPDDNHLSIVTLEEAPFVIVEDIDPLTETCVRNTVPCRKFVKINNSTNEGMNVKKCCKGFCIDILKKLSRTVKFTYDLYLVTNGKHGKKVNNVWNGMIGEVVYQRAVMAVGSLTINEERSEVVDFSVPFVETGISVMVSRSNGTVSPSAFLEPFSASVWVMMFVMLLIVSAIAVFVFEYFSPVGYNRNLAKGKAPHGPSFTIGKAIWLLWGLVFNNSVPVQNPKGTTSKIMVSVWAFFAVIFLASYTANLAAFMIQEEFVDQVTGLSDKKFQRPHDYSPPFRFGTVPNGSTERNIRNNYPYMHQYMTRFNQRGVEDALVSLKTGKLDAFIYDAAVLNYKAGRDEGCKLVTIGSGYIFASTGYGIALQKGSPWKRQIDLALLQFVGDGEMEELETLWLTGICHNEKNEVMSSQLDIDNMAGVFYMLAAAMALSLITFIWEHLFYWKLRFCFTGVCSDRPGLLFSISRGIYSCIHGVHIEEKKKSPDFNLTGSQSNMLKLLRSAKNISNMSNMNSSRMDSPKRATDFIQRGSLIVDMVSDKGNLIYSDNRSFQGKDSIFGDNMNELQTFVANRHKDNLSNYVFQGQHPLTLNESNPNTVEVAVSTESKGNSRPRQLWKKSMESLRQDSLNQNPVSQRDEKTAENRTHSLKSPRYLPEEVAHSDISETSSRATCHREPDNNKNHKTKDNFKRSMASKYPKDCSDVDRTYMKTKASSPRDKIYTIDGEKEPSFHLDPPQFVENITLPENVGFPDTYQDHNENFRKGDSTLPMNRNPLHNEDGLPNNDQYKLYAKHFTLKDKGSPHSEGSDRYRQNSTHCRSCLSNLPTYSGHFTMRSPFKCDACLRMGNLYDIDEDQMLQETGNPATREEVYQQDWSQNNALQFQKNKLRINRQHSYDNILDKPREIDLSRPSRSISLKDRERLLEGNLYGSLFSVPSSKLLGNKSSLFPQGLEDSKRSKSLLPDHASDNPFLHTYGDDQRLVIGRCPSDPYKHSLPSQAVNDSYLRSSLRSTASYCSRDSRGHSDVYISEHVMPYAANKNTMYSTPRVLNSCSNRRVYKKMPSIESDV

With `O=c1c(-c2ccc(O)cc2)coc2cc(O)cc(O)c12` [genistein], the inhibition (in general, the share of the control response that was lost under treatment) at 100 µM in test [1] amounted to 20 ± 1.4%; in test [2], 26 ± 2%.

Turning to `O=c1c(-c2ccc(O)cc2)coc2cc(O)ccc12` [daidzein, 4′,7-dihydroxyisoflavone], in test [3], the “% of control current at 100 μM” value is given as 68 ± 1.6.

For the compound `CN[C@H](CC(=O)O)C(=O)O` [NMDA], the half-maximal effective concentration (EC50) (in general, the concentration needed to bring the measured effect to its halfway point) in test [4] was found to be 14 ± 1.3 µM; in test [5], 44 ± 5.6 µM.
